The nature of data set [1]: Aqueous solubility with mPEG2000-DSPE formulation. Format: physicochemical. Conditions: water with mPEG2000-DSPE formulation, aqueous with cosolvent or surfactant or cyclodextrin. How it is done:
In addition, the aqueous solubility of […] increased to 10 mg/mL with mPEG2000-DSPE formulation.

The conditions of data set [2]: stated as known; cited from earlier work.
For a further data set, the system named is LNCap. Nature of the data set: SRB cytotoxicity assay, LNCap. Format: cell-based. The following applies: Homo sapiens. The text has this: (§1) Human hepatoma cell lines Hep3B, HepG2, HepG2/2.2.15, Huh-7 and Sk-Hep-1, human glioblastoma cell line RG-2, and human prostate cancer cell line DU145 were maintained in DMEM (HyClone Laboratories, Logan, Utah, USA). Human prostate cancer cell line LNCap was maintained in RPMI-1640 culture medium (Sigma-Aldrich, St. Louis, Mo., USA). […] Human prostate cancer cell line PC-3 was maintained in the Ham's F-12K medium (Invitrogen, Carlsbad, Calif., USA) with the same medium supplements described in the culture medium except that the fetal bovine serum concentration was reduced to 7% by volume. Cancer cells were maintained at 37° C. in a humidified incubator (Nuaire, USA) containing 5% CO2.
(§2) The SRB assay was used for measuring cancer cell viability. The cancer cells in the plate wells were rinsed with 1× PBS and treated with 1× trypsin-EDTA (Invitrogen, Carlsbad, Calif.). The culture medium was added to dilute the trypsin-EDTA. The detached cancer cells were harvested by centrifugation and suspended in the 1 ml culture medium. Ten μl of the cell suspension was dispensed into counting chambers and the cell density was determined microscopically. The cells in 198 μl suspensions were seeded onto a 96-well cell plate (Nunc, Rochester, N.Y.) at the appropriate cell density per well and incubated in the cell culture incubator overnight.
(§3) We evaluated the ant-cancer activity of the following CPT derivatives pharmaceutical compositions: • 1. TLC388 HCl, a non-water soluble CPT derivative (obtained from ScinoPharm Taiwan Ltd., Taiwan); • 2. […]
(§4) At the end of the incubation period, cells were fixed by adding 50 μl of cold 50% TCA (w/v) (Sigma, St Louis, Mo., USA) to a final concentration of 10% TCA and further incubated at 4° C. for 60 minutes. […] Bound stain in each well was solubilized with 100 μl of 10 mM trizma base (Bioshop, Burlington, ON, Canada), and the absorbance was measured using an automated plate reader (Anthos 2001, Anthos Labtec Instrument) at 540 nm.
(§5) The graph and data were analyzed by SigmaPlot 10.0 software and Microsoft Excel 2002.
Background: The SRB assay estimates cell density from bound dye.

In another data set the test system is myeloid CFCs. Nature of the data set: Bone marrow suppression evaluation, colony assay, myeloid progenitors. The data set is classed as cell-based. The following applies: human bone marrow progenitors, methylcellulose colony assay, 14-16 days. How it is done: (§6) An in vitro evaluation of the effect of the pharmaceutical compositions on human bone marrow cells was performed.
(§7) Protocol: Clonogenic progenitors of the erythroid (CFU-E, BFU-E), granulocyte-monocyte (CFU-GM) and multipotential lineages (CFU-GEMM) were set up in methylcellulose-based medium (R&D Systems) containing recombinant rhSCF (50 ng/mL), rhIL-3 (10 ng/mL), rhGM-CSF (10 ng/mL),and rhEpo (3 U/mL).
(§8) TLC388 HCl and Topotecan were diluted in DMSO and Lipotecan® was diluted in sterile water to provide the appropriate working stock concentrations. These working stock solutions were subsequently added to the methylcellulose-based colony assay medium described above. The colony assay mediums were set up in triplicate at 2×10^4 cells per culture medium.
(§9) The replicate culture mediums were incubated at 37° C. in 5% CO2 for 14-16 days. After this time, the resultant colonies in the culture medium were evaluated by a senior scientist in term of size and morphology.

The next data set relates to Hep3B. Nature of the data set: SRB cytotoxicity assay, Hep3B. Format: cell-based. The following applies: Homo sapiens.
Description: as §1, §2, §3, §4, §5

For a further data set, the system named is RG-2. Nature of the data set: SRB cytotoxicity assay, RG-2 glioma cell line. Format: cell-based. The following applies: Homo sapiens, RG2.
Description: as §1, §2, §3, §4, §5

For another data set, the system named is Huh-7. Nature of the data set: SRB cytotoxicity assay, Huh-7. Conditions: Homo sapiens. Format: cell-based.
Description: as §1, §2, §3, §4, §5

The subject of another data set is HepG2. Nature of the data set: SRB cytotoxicity assay, HepG2. Conditions: Homo sapiens. The data set is classed as cell-based.
Description: as §1, §2, §3, §4, §5

The test system of the next data set is HT29. Nature of the data set: SRB cytotoxicity assay, HT29 (colon cancer). Format: cell-based. Conditions: Homo sapiens, HT-29; HT29, incubation 72 h. How it is done: as §2, §3, §4, §5
The next data set deals with HepG2/2.2.15. Nature of the data set: SRB cytotoxicity assay, HepG2/2.2.15. Format: cell-based. Conditions: Homo sapiens.
Description: as §1, §2, §3, §4, §5

A further data set has as its system Sk-Hep-1. Nature of the data set: SRB cytotoxicity assay, Sk-Hep-1. The data set is classed as cell-based. The following applies: Homo sapiens, SK-HEP1.
Description: as §1, §2, §3, §4, §5

For another data set, the system named is DU145. Nature of the data set: SRB cytotoxicity assay, DU145. Format: cell-based. The following applies: Homo sapiens, DU-145.
Description: as §1, §2, §3, §4, §5

The next data set deals with HCT116. Nature of the data set: SRB cytotoxicity assay, HCT116 (colon cancer). The data set is classed as cell-based. The following applies: Homo sapiens, HCT-116; HCT116, incubation 72 h. The method, then: as §2, §3, §4, §5
The next data set concerns PC-3. Nature of the data set: SRB cytotoxicity assay, PC-3. Conditions: Homo sapiens. The data set is classed as cell-based.
Description: as §1, §2, §3, §4, §5

The test system of data set [3] is erythroid Colony Forming Cells (CFCs). Nature of the data set: Bone marrow suppression evaluation, colony assay, erythroid progenitors. The following applies: human bone marrow progenitors, methylcellulose colony assay, 14-16 days. Format: cell-based. The method, then:
as §6, §7, §8, §9

Where only a bound is given, the exact number is not on record here.

`CC[C@@]1(OC(=O)C(C)(C)ON=C2c3cc([N+](=O)[O-])cc([N+](=O)[O-])c3-c3c2cc([N+](=O)[O-])cc3[N+](=O)[O-])C(=O)OCc2c1cc1n(c2=O)Cc2cc3c(CN(C)C)c(O)ccc3nc2-1.Cl` [TLC1988 HCl, (S)-10-[(dimethylamino)methyl]-4-ethyl-9-hydroxy-4-O-[2-methyl-2-(2″,4″,5″,7″-tetranitro-9″-fluorenylideneaminooxy)propionyl]-1H-pyrano[3′,4′:6,7]indolizino[1,2-b]quinoline-3,14-(4H,12H)-dione, monohydrochloride]: in data set [1], the solubility was 10000 µg/mL. Further, in data set [2], the “stability in an alkaline condition” value is “unstable in an alkaline condition”.
For the molecule `CC[C@@]1(O)C(=O)OCc2c1cc1n(c2=O)Cc2cc3c(CN(C)C)c(O)ccc3nc2-1` [Topotecan], the IC50 in the data set on LNCap (incubation 24 h) is 14.9 µM; in the data set on LNCap (incubation 48 h) it was 6.15 µM; with LNCap (incubation 72 h), 2.59 µM; in the data set on myeloid CFCs, 0.0087 µM; with Hep3B (incubation 24 h), above 50 µM; in the data set with Hep3B (incubation 48 h), 64.6 µM. The IC50 in the data set with Hep3B (incubation 72 h) was determined as 0.2 µM; with RG-2 (RG-2, incubation 24 h), 7.23 µM; in the data set with RG-2 (RG-2, incubation 48 h), 2.78 µM; with RG-2 (RG-2, incubation 72 h), 3 µM; in the data set on Huh-7 (Huh-7, incubation 24 h), 65.3 µM; in the data set with Huh-7 (Huh-7, incubation 48 h) it was 5.05 µM. In addition, the IC50 in the data set with Huh-7 (Huh-7, incubation 72 h) was 2.8 µM; in the data set with HepG2 (HepG2, incubation 24 h), 57.5 µM; in the data set with HepG2 (HepG2, incubation 48 h), 2.73 µM; with HepG2 (HepG2, incubation 72 h), 0.686 µM; in the data set with HT29 it was 0.038 µM; in the data set on HepG2/2.2.15 (HepG2/2.2.15, incubation 24 h), above 50 µM. Moreover, the IC50 in the data set with HepG2/2.2.15 (HepG2/2.2.15, incubation 48 h) turned out to be 63.1 µM; in the data set on HepG2/2.2.15 (HepG2/2.2.15, incubation 72 h) it was 0.58 µM; in the data set with Sk-Hep-1 (Sk-Hep-1, incubation 24 h) it was 74.9 µM; with Sk-Hep-1 (Sk-Hep-1, incubation 48 h), 12.5 µM; with Sk-Hep-1 (Sk-Hep-1, incubation 72 h), 2.1 µM; in the data set with DU145 (DU145, incubation 24 h) it was 2.25 µM. Moreover, the half-maximal inhibitory concentration (IC50) in the data set with DU145 (DU145, incubation 48 h) worked out at 0.6 µM; in the data set with DU145 (DU145, incubation 72 h) it was 0.58 µM; in the data set on HCT116, 0.008 µM; in the data set on PC-3 (PC-3, incubation 24 h) it was 131 µM; in the data set on PC-3 (PC-3, incubation 48 h) it was 18.1 µM; in the data set on PC-3 (PC-3, incubation 72 h), 3.58 µM. It took 0.0118 µM to reach half-maximal inhibition in data set [3] (IC50).

By solubility is commonly meant how much of the substance goes into solution per volume. A low value points to little dissolved substance. In general, IC50 refers to the concentration that inhibits the measured activity by half. A lower IC50 goes with greater potency in that assay.
